{"source": "patent US20150283145A1", "about": "“TREATMENT OF HYPERPROLIFERATIVE AND PRE-CANCEROUS SKIN DISEASES USING AN INHIBITOR OF CBP/CATENIN” (PRISM Pharma Co., Ltd., priority 2012, published 2015)", "key": {"[1]": {"system": "human beta defensin 2 (HBD-2) gene expression", "experiment": "qPCR HBD-2 gene expression in psoriatic tissue model", "type": "cell-based", "description": "(§1) The psoriasis tissue model (SOR-300-FT; MatTek Corp., Ashland, Mass.) is a highly differentiated in vitro psoriatic tissue comprised of normal, human-derived keratinocytes and psoriatic fibroblasts which have been cultured to form a highly differentiated model of psoriatic tissue. Morphologically, the psoriatic tissue is of uniform thickness and is very similar to native psoriatic tissue in that it expresses increased levels of Ki67+ cells (hyperproliferation) and psoriasis-associated proteins such as psoriasin, elafin and human beta-defensin-2 (HBD-2) (Am. J. Pathol. 173:815-23, 2008). SOR-300-FT tissues (surface area=0.6 cm^2) were cultured on microporous membrane (pore size=0.4 μm) cell culture inserts. All psoriatic tissues were grown at the air liquid interface (ALI) in which the apical tissue layer is exposed to air. Use of the ALI induces the tissues to attain skin-like differentiation and allows direct topical application of test materials (similar to in vivo exposure).\n(§2) Calcipotriol at 2.5, 0.25 and 0.025 μg/ml in medium was used as positive control. Ultrapure water was used as the vehicle control. The test article Compound C was applied to the basolateral (by additions to the culture medium) and apical (50 μl) side of the tissues. The effect of each three concentrations of the test article on tissue structure was examined using H&E stained histological slides. For gene analysis, RNA was isolated using standard RNA isolation protocol (MatTek Corporation). Isolated RNA was quantified and the integrity of the isolated RNA was checked. Quantitative RT-PCR was performed to determine expression levels of 5 psoriatic associated genes (elafin, HBD-2, psoriasin, p63, and Ki67).\n(§3) SOR-300-FT™ tissues were transferred to 6-well plates containing 0.9 ml of pre-warmed assay medium and equilibrated to standard culture conditions (37° C., 5% CO2) for 1 hour. After the 1 hr equilibration, the tissues were re-fed with fresh medium as follow: 1) for the 24 hr time point, tissues were feed with 0.9 ml of medium and 2) for time points >24 hr, tissues were fed with 5 ml of culture medium by placing the cell culture inserts on top of the washers (Part # EPI-WSHR, MatTek Corporation). Next, 50 μl of the test article was applied topically to the psoriatic tissues (n=3) and the test article was added to the culture medium at concentrations of 100 μM, 30 μM, and 5 μM. At times 48 and 72 hours: a) the tissues were rinsed topically 3× with 300-400 μL of PBS, b) the inserts containing the tissues were held tightly with sterile forceps and the test article was rinsed gently by immersing the insert into PBS and decant medium from insert and c) fresh test article was re-applied to the tissue immediately after rinsing and decanting (50 μl, topically). Analysis was performed at t=48 hr (2× repeat applications) and t=96 hr (4× applications).\n(§4) After t=48 (2× repeat exposure) and t=96 hr (4× exposure), N=3 tissues/treatment were used for RNA isolation for biomarker identification (gene expression levels). After the t=48 and t=96 hr, N=1 tissue/treatment was fixed in 10% formalin for histological analysis.\n(§5) RNA Isolation: RNA was isolated from the tissues following MatTek's standardized RNA isolation protocol. The concentration, integrity, and purity of RNA was assessed using Experion System (Bio-Rad).\n(§6) qPCR: cDNA was generated using the RT2 First Strand Kit (Qiagen, cat#330401). Relative gene expression was measured using RT2 SYBR Green qPCR Mastermix (Qiagen, cat#330502) and Qiagen RT2 primers. Analysis was carried out using Bio-Rad CFX software.\n(§7) qPCR was performed to quantify the relative gene expression levels of 5 psoriatic associated gene biomarkers: 1) human beta defensin 2 (HBD-2), 2) psoriasin, 3) elafin and 4) p63, and 5) Ki67."}, "[2]": {"system": "psoriasis tissue model (SOR-300-FT)", "experiment": "Tissue structure (H&E histology) of psoriasis tissue model", "type": "cell-based, human", "description": "as §1, §2, §3, §4\nMicroscopic observations of histology samples were performed and effect of treatment on tissue morphology such as apical surface disruption, structural changes, and abnormal tissue staining was assessed."}, "p63 gene expression": {"system": "p63 gene expression", "experiment": "qPCR p63 gene expression in psoriatic tissue model", "type": "cell-based, human", "conditions": "for Downregulation of p63 gene: 2× or 4× repeat applications", "description": "as §1, §2, §3, §4, §5, §6, §7"}, "[3]": {"system": "psoriasin gene expression", "experiment": "qPCR psoriasin gene expression in psoriatic tissue model", "type": "cell-based, human", "description": "as §1, §2, §3, §4, §5, §6, §7"}, "Ki67 gene expression": {"system": "Ki67 gene expression", "experiment": "qPCR Ki67 gene expression in psoriatic tissue model", "type": "cell-based, human", "conditions": "for Downregulation of Ki67 gene: 2× or 4× repeat applications", "description": "as §1, §2\nas §3, with “applications). […]” for “applications).”\nas §5\nqPCR: cDNA was generated using the RT2 First Strand Kit (Qiagen, cat#330401). Relative gene expression was measured using RT2 SYBR Green qPCR Mastermix (Qiagen, cat#330502) and Qiagen RT2 primers. […]\nas §7"}, "elafin gene expression": {"system": "elafin gene expression", "experiment": "qPCR elafin gene expression in psoriatic tissue model", "type": "cell-based, human", "description": "as §1, §2, §3, §4, §5, §6, §7"}, "[4]": {"conditions": "0.025 ug/ml, 2× repeat applications"}, "[5]": {"conditions": "0.025 ug/ml, 4× repeat applications"}, "[6]": {"conditions": "0.25 ug/ml, 2× application, 48 hr"}, "[7]": {"conditions": "2.5 μg/ml, 2× repeat applications"}, "[8]": {"conditions": "2.5 μg/ml, 4× repeat applications"}}, "data": [{"smiles": "C=C1/C(=C\\C=C2/CCC[C@]3(C)[C@@H]([C@H](C)/C=C/[C@@H](O)C4CC4)CC[C@@H]23)C[C@@H](O)C[C@@H]1O", "note": "[Calcipotriol, reference compound]", "values": [{"measurement": "Downregulation (≧2 fold) of HBD-2 gene expression", "setting": "[1]; [4]", "value": "not after 2× repeat applications"}, {"measurement": "Downregulation of HBD-2 gene expression", "setting": "[1]; [5]", "value": "≥ 2", "unit": "fold"}, {"measurement": "Downregulation of HBD2 gene expression", "setting": "[1]; [6]", "value": "≥ 2", "unit": "fold"}, {"measurement": "Downregulation of HBD-2 gene expression", "setting": "[1]; [7]", "value": "≥ 2", "unit": "fold"}, {"measurement": "Reduction of HBD-2 gene expression", "setting": "[1]; [8]", "value": "significant reduction"}, {"measurement": "Microscopic observation of tissue histology", "setting": "[2]; 2.5, 0.25 and 0.025 μg/ml, 2× or 4× repeat exposures", "value": "minimal-to-no evidence of structural damage"}, {"measurement": "Downregulation of p63 gene expression", "setting": "p63 gene expression; [6]", "value": "≥ 2", "unit": "fold"}, {"measurement": "Downregulation of p63 gene expression", "setting": "p63 gene expression; [7]", "value": "≥ 2", "unit": "fold"}, {"measurement": "Decrease of p63 gene expression", "setting": "p63 gene expression; [8]", "value": 1.7, "unit": "fold"}, {"measurement": "Downregulation (≧2 fold) of psoriasin gene expression", "setting": "[3]; [4]", "value": "not after 2× repeat applications"}, {"measurement": "Downregulation of psoriasin gene expression", "setting": "[3]; [5]", "value": "≥ 2", "unit": "fold"}, {"measurement": "Downregulation of psoriasin gene expression", "setting": "[3]; [7]", "value": "≥ 2", "unit": "fold"}, {"measurement": "Reduction of psoriasin gene expression", "setting": "[3]; [8]", "value": "significant reduction"}, {"measurement": "Downregulation of Ki 67 gene expression", "setting": "Ki67 gene expression; [7]", "value": "≥ 2", "unit": "fold"}, {"measurement": "Decrease of Ki67 gene expression", "setting": "Ki67 gene expression; [8]", "value": 1.6, "unit": "fold"}, {"measurement": "Downregulation (≧2 fold) of elafin gene expression", "setting": "elafin gene expression; [4]", "value": "not after 2× repeat applications"}, {"measurement": "Downregulation of elafin gene expression", "setting": "elafin gene expression; [5]", "value": "≥ 2", "unit": "fold"}, {"measurement": "Downregulation of elafin gene expression", "setting": "elafin gene expression; [7]", "value": "≥ 2", "unit": "fold"}, {"measurement": "Reduction of elafin gene expression", "setting": "elafin gene expression; [8]", "value": "significant reduction"}]}, {"smiles": "C[C@H]1[C@H]2N(C(=O)CN(C)N2C(=O)NCc2ccccc2)[C@@H](Cc2ccc(O)cc2)C(=O)N1Cc1cccc2cccnc12", "note": "[Compound C, (6S,9S,9aS)—N-benzyl-6-(4-hydroxybenzyl)-2,9-dimethyl-4,7-dioxo-8-(quinolin-8-ylmethyl)octahydro-1H-pyrazino[2,1-c][1,2,4]triazine-1-carboxamide]", "values": [{"measurement": "Downregulation of HBD-2 gene expression", "setting": "[1]; 5 μM, 4× applications, 96 hr", "value": "≥ 2", "unit": "fold"}, {"measurement": "Downregulation of HBD-2 gene expression", "setting": "[1]; 30 μM, 4× applications, 96 hr", "value": "≥ 2", "unit": "fold"}, {"measurement": "Downregulation of HBD-2 gene expression", "setting": "[1]; 100 μM, 4× applications, 96 hr", "value": "≥ 2", "unit": "fold"}, {"measurement": "Microscopic observation of tissue histology", "setting": "[2]; 5 μM, 2× repeat exposures", "value": "minimal effect on tissue structure"}, {"measurement": "Basal cells and tissue regeneration (histology)", "setting": "[2]; 5 μM, 4× repeat exposures", "value": "the basal cells were intact and tissue regeneration was occurring"}, {"measurement": "Microscopic observation of tissue histology", "setting": "[2]; 5 μM, 4× repeat exposures", "value": "the parabasal-apical layer of the tissue was sloughed off"}, {"measurement": "Microscopic observation of tissue histology", "setting": "[2]; 30 μM, 2× repeat exposures, 48 hr", "value": "minor structural damage"}, {"measurement": "Microscopic observation of tissue histology", "setting": "[2]; 30 μM, 4× exposures, 96 hr", "value": "the suprabasal and apical layer was sloughed off"}, {"measurement": "Microscopic observation of tissue histology", "setting": "[2]; 100 μM, 2× or 4× repeat exposures", "value": "structural damage to the differentiated cell layer"}, {"measurement": "Downregulation of p63 gene", "setting": "p63 gene expression; 5 μM", "value": "did not show downregulation"}, {"measurement": "Downregulation of p63 gene", "setting": "p63 gene expression; 30 μM", "value": "did not show downregulation"}, {"measurement": "Downregulation of the p63 gene", "setting": "p63 gene expression; 100 μM, 2× repeat applications", "value": 1.6, "unit": "fold"}, {"measurement": "Downregulation of psoriasin gene expression", "setting": "[3]; 5 μM, 4× applications, 96 hr", "value": "≥ 2", "unit": "fold"}, {"measurement": "Downregulation of psoriasin gene expression", "setting": "[3]; 30 μM, 4× applications, 96 hr", "value": "≥ 2", "unit": "fold"}, {"measurement": "Downregulation of psoriasin gene expression", "setting": "[3]; 100 μM, 4× applications, 96 hr", "value": "≥ 2", "unit": "fold"}, {"measurement": "Downregulation of Ki67 gene", "setting": "Ki67 gene expression; 5 μM", "value": "did not show downregulation"}, {"measurement": "Downregulation of Ki67 gene", "setting": "Ki67 gene expression; 30 μM", "value": "did not show downregulation"}, {"measurement": "Downregulation of Ki 67 gene expression", "setting": "Ki67 gene expression; 100 μM, 2× and 4× applications (FIGS. 4A-B)", "value": "No down regulation"}, {"measurement": "Downregulation of elafin gene expression", "setting": "elafin gene expression; 5 μM, 4× applications, 96 hr", "value": "≥ 2", "unit": "fold"}, {"measurement": "Downregulation of elafin gene expression", "setting": "elafin gene expression; 30 μM, 4× applications, 96 hr", "value": "≥ 2", "unit": "fold"}, {"measurement": "Reduction in elafin gene expression level", "setting": "elafin gene expression; 30 μM, 48 hr (2× applications)", "value": 2.2, "unit": "fold"}, {"measurement": "Downregulation of elafin gene expression", "setting": "elafin gene expression; 100 μM, 4× applications, 96 hr", "value": "≥ 2", "unit": "fold"}]}]}
